Source: the NIST ThermoML archive (doi:10.1016/j.jct.2016.04.014)
Numbers after ± are expanded uncertainties.

Test: xn = mol fraction of the nth substance listed
Conditions: Liquid, Vibrating tube method

CCCCCCCC [octane] + CCO
mass density [kg/m3]
Conditions	100 kPa	500 kPa	5000 kPa	10000 kPa	15000 kPa	20000 kPa	25000 kPa	30000 kPa	35000 kPa	40000 kPa
293.15 K, x1 = 0.2492	743.9 ± 1.7	744.3 ± 1.7	748.2 ± 1.7	752.3 ± 1.7	756.2 ± 1.7	759.9 ± 1.7	763.4 ± 1.7	766.8 ± 1.7	770 ± 1.8	773.2 ± 1.8
293.15 K, x1 = 0.4999	722.3 ± 1.7	722.6 ± 1.8	726.5 ± 1.7	730.6 ± 1.7	734.4 ± 1.7	738.1 ± 1.7	741.6 ± 1.7	744.9 ± 1.8	748.1 ± 1.8	751.2 ± 1.8
293.15 K, x1 = 0.7503	709.6 ± 1.7	709.9 ± 1.7	713.7 ± 1.7	717.7 ± 1.7	721.5 ± 1.7	725.1 ± 1.7	728.6 ± 1.8	731.9 ± 1.8	735 ± 1.8	738.1 ± 1.8
303.15 K, x1 = 0.2492	735.3 ± 1.7	735.7 ± 1.7	739.8 ± 1.7	744.2 ± 1.7	748.3 ± 1.7	752.2 ± 1.7	755.9 ± 1.7	759.5 ± 1.7	762.9 ± 1.8	766.2 ± 1.8
303.15 K, x1 = 0.4999	713.7 ± 1.7	714.1 ± 1.7	718.3 ± 1.7	722.6 ± 1.7	726.7 ± 1.7	730.6 ± 1.7	734.2 ± 1.7	737.7 ± 1.8	741.1 ± 1.8	744.3 ± 1.8
303.15 K, x1 = 0.7503	701.2 ± 1.7	701.5 ± 1.7	705.6 ± 1.7	709.9 ± 1.7	713.9 ± 1.7	717.8 ± 1.7	721.4 ± 1.8	724.9 ± 1.8	728.2 ± 1.8	731.4 ± 1.8
313.15 K, x1 = 0.2492	726.5 ± 1.7	726.9 ± 1.7	731.3 ± 1.7	736 ± 1.7	740.4 ± 1.7	744.5 ± 1.7	748.4 ± 1.7	752.1 ± 1.7	755.7 ± 1.8	759.1 ± 1.8
313.15 K, x1 = 0.4999	705 ± 1.7	705.4 ± 1.7	709.8 ± 1.7	714.5 ± 1.7	718.8 ± 1.7	722.9 ± 1.7	726.8 ± 1.7	730.5 ± 1.8	734 ± 1.8	737.4 ± 1.8
313.15 K, x1 = 0.7503	692.6 ± 1.7	693 ± 1.7	697.4 ± 1.7	702 ± 1.7	706.3 ± 1.7	710.3 ± 1.7	714.1 ± 1.8	717.8 ± 1.8	721.2 ± 1.8	724.6 ± 1.8
323.15 K, x1 = 0.2492	717.4 ± 1.7	717.9 ± 1.7	722.6 ± 1.7	727.6 ± 1.7	732.2 ± 1.7	736.6 ± 1.7	740.7 ± 1.7	744.6 ± 1.7	748.4 ± 1.8	752 ± 1.8
323.15 K, x1 = 0.4999	696 ± 1.7	696.4 ± 1.7	701.2 ± 1.7	706.1 ± 1.7	710.8 ± 1.7	715.1 ± 1.7	719.2 ± 1.8	723.1 ± 1.8	726.8 ± 1.8	730.4 ± 1.8
323.15 K, x1 = 0.7503	683.8 ± 1.7	684.2 ± 1.7	688.9 ± 1.7	693.8 ± 1.7	698.4 ± 1.7	702.7 ± 1.7	706.8 ± 1.8	710.6 ± 1.8	714.2 ± 1.8	717.8 ± 1.8
333.15 K, x1 = 0.2492	708.2 ± 1.7	708.6 ± 1.7	713.7 ± 1.7	719.1 ± 1.7	724 ± 1.7	728.6 ± 1.7	733 ± 1.7	737.1 ± 1.8	741 ± 1.8	744.8 ± 1.8
333.15 K, x1 = 0.4999	686.8 ± 1.8	687.3 ± 1.7	692.4 ± 1.7	697.7 ± 1.7	702.7 ± 1.7	707.3 ± 1.7	711.6 ± 1.8	715.7 ± 1.8	719.6 ± 1.8	723.4 ± 1.8
333.15 K, x1 = 0.7503	674.8 ± 1.7	675.3 ± 1.7	680.4 ± 1.7	685.6 ± 1.7	690.5 ± 1.7	695.1 ± 1.8	699.3 ± 1.8	703.4 ± 1.8	707.2 ± 1.8	710.9 ± 1.8
353.15 K, x1 = 0.2492	–	689 ± 1.7	695 ± 1.7	701.1 ± 1.7	706.8 ± 1.7	712 ± 1.7	716.9 ± 1.7	721.5 ± 1.8	725.8 ± 1.8	730 ± 1.8
353.15 K, x1 = 0.4999	–	667.9 ± 1.7	674 ± 1.7	680.2 ± 1.7	685.8 ± 1.7	691.1 ± 1.7	695.9 ± 1.8	700.5 ± 1.8	704.8 ± 1.8	709 ± 1.8
353.15 K, x1 = 0.7503	–	656.6 ± 1.7	662.6 ± 1.7	668.7 ± 1.7	674.3 ± 1.7	679.5 ± 1.8	684.3 ± 1.8	688.7 ± 1.8	693 ± 1.8	697.1 ± 1.8
373.15 K, x1 = 0.2492	–	667.6 ± 2.7	674.8 ± 2.7	682 ± 2.7	688.6 ± 2.7	694.6 ± 2.7	700.1 ± 2.7	705.2 ± 2.7	710 ± 2.7	714.6 ± 2.8
373.15 K, x1 = 0.4999	–	647.2 ± 2.7	654.4 ± 2.7	661.7 ± 2.7	668.3 ± 2.7	674.3 ± 2.7	679.8 ± 2.7	684.9 ± 2.7	689.7 ± 2.8	694.3 ± 2.8
373.15 K, x1 = 0.7503	–	637 ± 2.7	644.1 ± 2.7	651.2 ± 2.7	657.7 ± 2.7	663.6 ± 2.7	669 ± 2.7	674 ± 2.8	678.7 ± 2.8	683.2 ± 2.8
